EC50 data for six molecules are collected here from patent US9409966B2, “Glucagon-like peptide-1 derivatives and their pharmaceutical use” (priority 2007, dated 2016).

For one assay, the target named is T1, human GLP-1 receptor (Homo sapiens, UniProt P43220).
T1 construct: expressed in transfected cells; host or cells: BHK467-12A (tk-ts13) baby hamster kidney cells; purified plasma membranes
As to the kind of experiment: Stimulation of cAMP formation in a cell line expressing the cloned human GLP-1 receptor. In kind it is biochemical. The settings on record: cAMP production, purified plasma membranes from BHK467-12A (tk-ts13), AlphaScreen cAMP Assay Kit; read-out: Potency [EC50/nM]. For orientation: Changes in cAMP serve as a functional read-out for many G protein-coupled receptors.

The target of assay [1] is human serum albumin (HSA) (Homo sapiens, UniProt P02768). The assay can be described thus: Albumin binding affinity, competition scintillation proximity assay (SPA). On the technique in general: SPA uses beads or plates that emit light when radiolabelled molecules are held near them.
Chain of human serum albumin (HSA) (P02768 25-609): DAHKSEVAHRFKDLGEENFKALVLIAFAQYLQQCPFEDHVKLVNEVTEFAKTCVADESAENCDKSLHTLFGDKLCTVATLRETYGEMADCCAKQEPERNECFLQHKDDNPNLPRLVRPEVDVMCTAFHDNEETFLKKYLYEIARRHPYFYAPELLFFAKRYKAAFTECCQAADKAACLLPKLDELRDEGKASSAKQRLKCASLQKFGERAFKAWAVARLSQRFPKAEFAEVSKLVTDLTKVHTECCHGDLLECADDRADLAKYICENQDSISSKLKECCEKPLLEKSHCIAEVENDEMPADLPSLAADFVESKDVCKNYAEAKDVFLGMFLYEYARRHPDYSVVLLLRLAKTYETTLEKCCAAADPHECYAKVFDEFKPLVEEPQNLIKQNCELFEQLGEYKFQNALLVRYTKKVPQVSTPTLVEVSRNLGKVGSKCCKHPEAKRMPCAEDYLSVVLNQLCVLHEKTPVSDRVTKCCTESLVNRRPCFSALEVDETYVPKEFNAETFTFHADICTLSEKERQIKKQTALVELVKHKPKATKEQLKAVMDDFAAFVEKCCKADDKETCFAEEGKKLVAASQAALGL
Description: Streptavidin-SPA beads (GE Healthcare RPNQ0009) were incubated with biotinylated HSA for 5 hours. The beads were washed with buffer to remove unbound HSA. […] After 20 hours of gentle rocking at room temperature the plates were centrifuged and counted on a TopCounter.

The structures appear in SMILES notation.

T1 sequence (P43220 24-463): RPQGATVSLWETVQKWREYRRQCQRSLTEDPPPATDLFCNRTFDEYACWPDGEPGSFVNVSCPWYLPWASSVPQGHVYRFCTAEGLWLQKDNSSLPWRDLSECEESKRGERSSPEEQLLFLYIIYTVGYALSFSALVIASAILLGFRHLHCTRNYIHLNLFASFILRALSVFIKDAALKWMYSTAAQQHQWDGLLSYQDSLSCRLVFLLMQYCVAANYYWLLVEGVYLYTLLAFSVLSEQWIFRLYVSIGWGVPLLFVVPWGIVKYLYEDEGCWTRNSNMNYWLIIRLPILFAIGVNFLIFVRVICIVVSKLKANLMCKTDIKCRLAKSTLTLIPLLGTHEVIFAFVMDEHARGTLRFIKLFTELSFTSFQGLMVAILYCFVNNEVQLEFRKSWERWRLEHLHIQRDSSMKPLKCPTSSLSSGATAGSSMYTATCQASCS
Description for human GLP-1 receptor: A stable transfected cell line has been prepared at NN A/S, Denmark, and a high expressing clone was selected for screening. The cells were grown at 5% CO2 in DMEM, 5% FCS, 1% Pen/Strep (Penicillin/Streptomycin) and 0.5 mg/ml of the selection marker G418.
Cells at approximate 80% confluence were washed 2× with PBS (Phosphate Buffered Saline) and harvested with Versene (aqueous solution of the tetrasodium salt of ethylenediaminetetraacetic acid), centrifuged 5 min at 1000 rpm and the supernatant removed. The additional steps were all made on ice. […] Suspension in Buffer 2, homogenization and centrifugation was repeated once and the membranes were resuspended in Buffer 2 and ready for further analysis or stored at −80° C.
The functional receptor assay was carried out by measuring the peptide induced cAMP production by The AlphaScreen Technology. […] The capture of cAMP is achieved by using a specific antibody conjugated to acceptor beads. Formed cAMP was counted and measured at a AlphaFusion Microplate Analyzer. The EC50 values were calculated using the Graph-Pad Prisme software (version 5).

For the molecule `CC[C@H](C)[C@H](NC(=O)[C@H](Cc1ccccc1)NC(=O)[C@H](CCC(=O)O)NC(=O)[C@H](CCCNC(=N)N)NC(=O)[C@H](C)NC(=O)[C@H](C)NC(=O)[C@H](CCC(N)=O)NC(=O)[C@H](CCC(=O)O)NC(=O)[C@H](CCC(=O)O)NC(=O)[C@H](CC(C)C)NC(=O)[C@H](Cc1ccc(O)cc1)NC(=O)[C@H](CO)NC(=O)[C@H](CO)NC(=O)[C@@H](NC(=O)[C@H](CC(=O)O)NC(=O)[C@H](CO)NC(=O)[C@@H](NC(=O)[C@H](Cc1ccccc1)NC(=O)[C@@H](NC(=O)CNC(=O)[C@H](CCC(=O)O)NC(=O)[C@H](C)NC(=O)CCc1c[nH]cn1)[C@@H](C)O)[C@@H](C)O)C(C)C)C(=O)N[C@@H](C)C(=O)N[C@@H](Cc1c[nH]c2ccccc12)C(=O)N[C@@H](CC(C)C)C(=O)N[C@H](C(=O)N[C@@H](CCCNC(=N)N)C(=O)NCC(=O)N[C@@H](CCCNC(=N)N)C(=O)N[C@@H](CCCCNC(=O)COCCOCCNC(=O)COCCOCCNC(=O)C[C@@H](NC(=O)C1CCN(C(=O)CCCCCCCCCCCCCCCCCCC(=O)O)CC1)C(=O)O)C(N)=O)C(C)C` [Example 1, N-epsilon37{2-[2-(2-{2-[2-((R)-3-carboxy-3-{[1-(19-carboxynonadecanoyl)piperidine-4-carbonyl]amino}propionylamino)ethoxy]ethoxy}acetylamino)ethoxy]ethoxy}acetyl [desaminoHis7,Glu22,Arg26,Arg34,Lys37]GLP-1(7-37)amide], the EC50 at human GLP-1 receptor was 0.37 nM; in assay [1] it was 0.4 to 0.8 µM.

As for `CC[C@H](C)[C@H](NC(=O)[C@H](Cc1ccccc1)NC(=O)[C@H](CCC(=O)O)NC(=O)[C@H](CCCNC(=N)N)NC(=O)[C@H](C)NC(=O)[C@H](C)NC(=O)[C@H](CCC(N)=O)NC(=O)[C@H](CCC(=O)O)NC(=O)[C@H](CCC(=O)O)NC(=O)[C@H](CC(C)C)NC(=O)[C@H](Cc1ccc(O)cc1)NC(=O)[C@H](CO)NC(=O)[C@H](CO)NC(=O)[C@@H](NC(=O)[C@H](CC(=O)O)NC(=O)[C@H](CO)NC(=O)[C@@H](NC(=O)[C@H](Cc1ccccc1)NC(=O)[C@@H](NC(=O)CNC(=O)[C@H](CCC(=O)O)NC(=O)[C@H](C)NC(=O)CCc1c[nH]cn1)[C@@H](C)O)[C@@H](C)O)C(C)C)C(=O)N[C@@H](C)C(=O)N[C@@H](Cc1c[nH]c2ccccc12)C(=O)N[C@@H](CC(C)C)C(=O)N[C@H](C(=O)N[C@@H](CCCNC(=N)N)C(=O)NCC(=O)N[C@@H](CCCNC(=N)N)C(=O)N[C@@H](CCCCNC(=O)COCCOCCNC(=O)COCCOCCNC(=O)CC[C@H](NC(=O)CCCCCCCCCCCCCCCCCCC(=O)O)C(=O)O)C(=O)O)C(C)C` [Example 22, N-epsilon37-[2-(2-{2-[2-(2-{2-[(S)-4-Carboxy-4-(19-carboxynonadecanoylamino)butyrylamino]ethoxy}ethoxy)acetylamino]ethoxy}ethoxy)acetyl][DesaminoHis7,Glu22,Arg26,Arg34,Lys37]GLP-1-(7-37)], the EC50 on human GLP-1 receptor was 1.35 nM; in assay [1], 0.4 to 0.8 µM.

Regarding `CC[C@H](C)[C@H](NC(=O)[C@H](Cc1ccccc1)NC(=O)[C@H](CCC(=O)O)NC(=O)[C@H](CCCNC(=N)N)NC(=O)[C@H](C)NC(=O)[C@H](C)NC(=O)[C@H](CCC(N)=O)NC(=O)[C@H](CCC(=O)O)NC(=O)[C@H](CCC(=O)O)NC(=O)[C@H](CC(C)C)NC(=O)[C@H](Cc1ccc(O)cc1)NC(=O)[C@H](CO)NC(=O)[C@H](CO)NC(=O)[C@@H](NC(=O)[C@H](CC(=O)O)NC(=O)[C@H](CO)NC(=O)[C@@H](NC(=O)[C@H](Cc1ccccc1)NC(=O)[C@@H](NC(=O)CNC(=O)[C@H](CCC(=O)O)NC(=O)[C@H](C)NC(=O)CCc1c[nH]cn1)[C@@H](C)O)[C@@H](C)O)C(C)C)C(=O)N[C@@H](C)C(=O)N[C@@H](Cc1c[nH]c2ccccc12)C(=O)N[C@@H](CC(C)C)C(=O)N[C@H](C(=O)N[C@@H](CCCNC(=N)N)C(=O)NCC(=O)N[C@@H](CCCNC(=N)N)C(=O)N[C@@H](CCCCNC(=O)COCCOCCNC(=O)CC[C@H](NC(=O)CC[C@H](NC(=O)CCCCCCCCCCCNC(=O)CCCS(=O)(=O)NC(=O)CCCCCCCCCCCCCCCc1nnn[nH]1)C(=O)O)C(=O)O)C(N)=O)C(C)C` [Example 13, N-epsilon37-[2-(2-{2-[(S)-4-Carboxy-4-((S)-4-carboxy-4-{12-[4-(16-(1H-tetrazol-5-yl)hexadecanoylsulfamoyl)butyrylamino]dodecanoylamino}butyrylamino)butyrylamino]ethoxy}ethoxy)acetyl][DesaminoHis7,Glu22,Arg26,Arg34,Lys37]GLP-1-(7-37)amide], the EC50 on human GLP-1 receptor was 1.97 nM; in assay [1] it was 0.1 to 0.15 µM.

Turning to `CC[C@H](C)[C@H](NC(=O)[C@H](Cc1ccccc1)NC(=O)[C@H](CCC(=O)O)NC(=O)[C@H](CCCNC(=N)N)NC(=O)[C@H](C)NC(=O)[C@H](C)NC(=O)[C@H](CCC(N)=O)NC(=O)[C@H](CCC(=O)O)NC(=O)[C@H](CCC(=O)O)NC(=O)[C@H](CC(C)C)NC(=O)[C@H](Cc1ccc(O)cc1)NC(=O)[C@H](CO)NC(=O)[C@H](CO)NC(=O)[C@@H](NC(=O)[C@H](CC(=O)O)NC(=O)[C@H](CO)NC(=O)[C@@H](NC(=O)[C@H](Cc1ccccc1)NC(=O)[C@@H](NC(=O)CNC(=O)[C@H](CCC(=O)O)NC(=O)C(C)(C)NC(=O)[C@@H](N)Cc1c[nH]cn1)[C@@H](C)O)[C@@H](C)O)C(C)C)C(=O)N[C@@H](C)C(=O)N[C@@H](Cc1c[nH]c2ccccc12)C(=O)N[C@@H](CC(C)C)C(=O)N[C@H](C(=O)N[C@@H](CCCNC(=N)N)C(=O)NCC(=O)N[C@@H](CCCNC(=N)N)C(=O)N[C@@H](CCCCNC(=O)COCCOCCNC(=O)COCCOCCNC(=O)C[C@H](NC(=O)C1CCN(C(=O)CCCCCCCCCCCCCCCCCCC(=O)O)CC1)C(=O)O)C(N)=O)C(C)C` [Example 2, N-epsilon37{2-[2-(2-{2-[2-((S)-3-carboxy-3-{[1-(19-carboxynonadecanoyl)piperidine-4-carbonyl]amino}propionylamino)ethoxy]ethoxy}acetylamino)ethoxy]ethoxy}acetyl [Aib8,Glu22,Arg26,Arg34,Lys37]GLP-1-(7-37)amide], the EC50 was 0.2 nM on human GLP-1 receptor and 0.2 to 0.4 µM in assay [1].

`CC[C@H](C)[C@H](NC(=O)[C@H](Cc1ccccc1)NC(=O)[C@H](CCC(=O)O)NC(=O)[C@H](CCCNC(=N)N)NC(=O)[C@H](C)NC(=O)[C@H](C)NC(=O)[C@H](CCC(N)=O)NC(=O)[C@H](CCC(=O)O)NC(=O)[C@H](CCC(=O)O)NC(=O)[C@H](CC(C)C)NC(=O)[C@H](Cc1ccc(O)cc1)NC(=O)[C@H](CO)NC(=O)[C@H](CO)NC(=O)[C@@H](NC(=O)[C@H](CC(=O)O)NC(=O)[C@H](CO)NC(=O)[C@@H](NC(=O)[C@H](Cc1ccccc1)NC(=O)[C@@H](NC(=O)CNC(=O)[C@H](CCC(=O)O)NC(=O)C(C)(C)NC(=O)[C@@H](N)Cc1c[nH]cn1)[C@@H](C)O)[C@@H](C)O)C(C)C)C(=O)N[C@@H](C)C(=O)N[C@@H](Cc1c[nH]c2ccccc12)C(=O)N[C@@H](CC(C)C)C(=O)N[C@H](C(=O)N[C@@H](CCCNC(=N)N)C(=O)NCC(=O)N[C@@H](CCCNC(=N)N)C(=O)N[C@@H](CCCCNC(=O)COCCOCCNC(=O)CC[C@H](NC(=O)CC[C@H](NC(=O)CCCCCCCCCCCNC(=O)CCCS(=O)(=O)NC(=O)CCCCCCCCCCCCCCCc1nnn[nH]1)C(=O)O)C(=O)O)C(N)=O)C(C)C` [Example 12, N-epsilon37-[2-(2-{2-[(S)-4-Carboxy-4-((S)-4-carboxy-4-{12-[4-(16-(1H-tetrazol-5-yl)hexadecanoylsulfamoyl)butyrylamino]dodecanoylamino}butyrylamino)butyrylamino]ethoxy}ethoxy)acetyl][Aib8,Glu22,Arg26,Arg34,Lys37]GLP-1-(7-37)amide]: the EC50 was 1.8 nM on human GLP-1 receptor and 0.8 to 1.5 µM in assay [1].

Take `CC[C@H](C)[C@H](NC(=O)[C@H](Cc1ccccc1)NC(=O)[C@H](CCC(=O)O)NC(=O)[C@H](CCCNC(=N)N)NC(=O)[C@H](C)NC(=O)[C@H](C)NC(=O)[C@H](CCC(N)=O)NC(=O)[C@H](CCC(=O)O)NC(=O)[C@H](CCC(=O)O)NC(=O)[C@H](CC(C)C)NC(=O)[C@H](Cc1ccc(O)cc1)NC(=O)[C@H](CO)NC(=O)[C@H](CO)NC(=O)[C@@H](NC(=O)[C@H](CC(=O)O)NC(=O)[C@H](CO)NC(=O)[C@@H](NC(=O)[C@H](Cc1ccccc1)NC(=O)[C@@H](NC(=O)CNC(=O)[C@H](CCC(=O)O)NC(=O)C(C)(C)NC(=O)[C@@H](N)Cc1c[nH]cn1)[C@@H](C)O)[C@@H](C)O)C(C)C)C(=O)N[C@@H](C)C(=O)N[C@@H](Cc1c[nH]c2ccccc12)C(=O)N[C@@H](CC(C)C)C(=O)N[C@H](C(=O)N[C@@H](CCCNC(=N)N)C(=O)NCC(=O)N[C@@H](CCCNC(=N)N)C(=O)N[C@@H](CCCCNC(=O)COCCOCCNC(=O)COCCOCCNC(=O)CC[C@H](NC(=O)[C@H]1CC[C@H](CNC(=O)CCCCCCCCCCCCCCCCCCC(=O)O)CC1)C(=O)O)C(N)=O)C(C)C` [Example 7, N-epsilon37-[2-(2-{2-[2-(2-{2-[(S)-4-Carboxy-4-({trans-4-[(19-carboxy-nonadecanoylamino)methyl]cyclohexanecarbonyl}amino)butyrylamino]ethoxy}ethoxy)acetylamino]ethoxy}ethoxy)acetyl][Aib8,Glu22,Arg26,Arg34,Lys37]GLP-1-(7-37)amide]: the EC50 is 0.58 nM at human GLP-1 receptor and 0.8 to 1.5 µM in assay [1].
